This is an account of results in PMC3216989, “Bluetongue Virus VP1 Polymerase Activity In Vitro: Template Dependency, Dinucleotide Priming and Cap Dependency” (PLoS ONE, 2011).

The target of the assay is T1, BTV VP1 (his-tagged VP1) (Bluetongue virus (serotype 10 / American isolate), UniProt P13840).
T1 construct: gene Segment-1; tag cleavage not mentioned
In words: in vitro polymerase assay, [α-32P]CTP incorporation into dsRNA, native PAGE. To be noted: 20 pmol in 50 µl, uncapped T7 S9 ssRNA template, Mg2+, Mn2+, pH 7.4, 37 °C, 5 h. The assay is classed as biochemical.

T1 sequence (P13840 whole entry): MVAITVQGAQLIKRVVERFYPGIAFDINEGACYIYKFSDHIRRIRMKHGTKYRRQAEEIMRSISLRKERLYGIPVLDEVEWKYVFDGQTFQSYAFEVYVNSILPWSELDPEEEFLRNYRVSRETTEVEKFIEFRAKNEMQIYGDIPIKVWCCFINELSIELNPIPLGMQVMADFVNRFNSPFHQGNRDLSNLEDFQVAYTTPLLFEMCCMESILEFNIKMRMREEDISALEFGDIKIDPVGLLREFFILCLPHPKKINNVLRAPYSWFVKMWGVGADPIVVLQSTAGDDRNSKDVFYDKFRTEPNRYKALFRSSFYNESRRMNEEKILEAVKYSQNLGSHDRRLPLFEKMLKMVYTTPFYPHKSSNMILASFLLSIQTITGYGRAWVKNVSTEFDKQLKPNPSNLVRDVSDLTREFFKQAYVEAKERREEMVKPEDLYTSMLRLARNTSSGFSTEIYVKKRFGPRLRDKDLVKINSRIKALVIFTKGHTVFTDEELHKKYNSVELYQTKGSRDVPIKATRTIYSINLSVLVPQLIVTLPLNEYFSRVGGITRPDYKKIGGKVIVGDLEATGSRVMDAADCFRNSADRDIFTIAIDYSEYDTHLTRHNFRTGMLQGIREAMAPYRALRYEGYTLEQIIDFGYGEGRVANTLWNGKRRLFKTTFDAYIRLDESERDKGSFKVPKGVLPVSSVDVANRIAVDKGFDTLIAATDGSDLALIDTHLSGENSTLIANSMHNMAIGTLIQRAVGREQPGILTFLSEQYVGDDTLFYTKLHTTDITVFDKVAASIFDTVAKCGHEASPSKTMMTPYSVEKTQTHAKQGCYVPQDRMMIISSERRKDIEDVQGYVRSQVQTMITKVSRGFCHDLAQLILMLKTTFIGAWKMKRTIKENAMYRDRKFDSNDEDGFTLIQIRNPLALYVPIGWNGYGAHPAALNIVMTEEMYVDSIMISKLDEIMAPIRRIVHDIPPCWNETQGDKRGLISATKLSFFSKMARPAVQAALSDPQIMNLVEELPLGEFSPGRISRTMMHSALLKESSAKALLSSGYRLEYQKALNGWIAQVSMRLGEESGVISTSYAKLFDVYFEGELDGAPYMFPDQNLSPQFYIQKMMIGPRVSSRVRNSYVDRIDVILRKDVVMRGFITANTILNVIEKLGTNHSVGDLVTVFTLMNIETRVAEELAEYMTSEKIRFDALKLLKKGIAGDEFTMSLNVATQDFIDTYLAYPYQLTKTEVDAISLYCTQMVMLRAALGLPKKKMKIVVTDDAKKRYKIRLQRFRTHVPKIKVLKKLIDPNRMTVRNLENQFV

Consider `CO[C@H]1[C@@H](O)[C@H](n2c[n+](C)c3c(=O)[nH]c(N)nc32)O[C@@H]1COP(=O)(O)OP(=O)(O)OP(=O)(O)OC[C@H]1O[C@@H](n2cnc3c(=O)[nH]c(N)nc32)[C@H](O)[C@@H]1O` [ARCA, 3′-O-methyl-m7GpppG], for which the fold of control result (activator, allosteric proposed) was “dsRNA synthesis from both capped and uncapped T7 S9 ssRNA was enhanced”. As for `Nc1nc2c(ncn2[C@@H]2O[C@H](COP(=O)(O)O[C@H]3[C@@H](O)[C@H](n4cnc5c(N)ncnc54)O[C@@H]3CO)[C@@H](O)[C@H]2O)c(=O)[nH]1` [ApG], the fold of control entry (priming dinucleotide) is “GpG and ApG, which complement only the last nucleotide”.

On to `Nc1nc2c(ncn2[C@@H]2O[C@H](COP(=O)(O)O[C@H]3[C@@H](O)[C@H](n4cnc5c(=O)[nH]c(N)nc54)O[C@@H]3CO)[C@@H](O)[C@H]2O)c(=O)[nH]1` [GpG], for which the fold of control result (priming dinucleotide, additional allosteric effect proposed) was “GpG and ApG, which complement only the last nucleotide”. Consider `Nc1nc2c(ncn2[C@@H]2O[C@H](COP(=O)(O)OP(=O)(O)OP(=O)(O)OC[C@H]3O[C@@H](n4cnc5c(N)ncnc54)[C@H](O)[C@@H]3O)[C@@H](O)[C@H]2O)c(=O)[nH]1` [GpppA], for which the fold of control result (activator, allosteric proposed) is “dsRNA synthesis from both capped and uncapped T7 S9 ssRNA was enhanced”.

On to `Nc1nc2c(ncn2[C@@H]2O[C@H](COP(=O)(O)OP(=O)(O)OP(=O)(O)OC[C@H]3O[C@@H](n4cnc5c(=O)[nH]c(N)nc54)[C@H](O)[C@@H]3O)[C@@H](O)[C@H]2O)c(=O)[nH]1` [GpppG], for which the fold of control result (activator, allosteric proposed) is “enhanced by the addition of all cap analogues, with GpppG showing the greatest enhancement”. `C[n+]1cn([C@@H]2O[C@H](COP(=O)(O)OP(=O)(O)OP(=O)(O)OC[C@H]3O[C@@H](n4cnc5c(=O)[nH]c(N)nc54)[C@H](O)[C@@H]3O)[C@@H](O)[C@H]2O)c2nc(N)[nH]c(=O)c21` [m7GpppG]: under “activator, allosteric proposed”, the fold of control result is “dsRNA synthesis from both capped and uncapped T7 S9 ssRNA was enhanced”.
